Source: ChEMBL document CHEMBL1131956, “Nucleomimetic strategy for the inhibition of HIV-1 nucleocapsid protein NCp7 activities” (1999)

How the values were obtained:
[1] = system: Human immunodeficiency virus 1; experiment: Affinity for HIV-1 Nucleocapsid Protein (12-53)NCp7 was determined; type: functional
[2] = target: Human immunodeficiency virus type 1 reverse transcriptase (Human immunodeficiency virus 1) (UniProt Q72547); experiment: Reverse transcriptase activity using an HIV-1 infected cell line at 10 micro M concentration

inhibition [2] [%] | SMILES | Affinity [1] [M⁻¹]
 | Cc1cn(C2CC(O)C(NC(=O)CC3CC(n4cnc5c(O)nc(N)nc54)OC3CO)O2)c(=O)[nH]c1=O (configuration not stated) | 9
20 | Cc1cn(C2CC(CC(=O)NC3OC(n4cnc5c(O)nc(N)nc54)CC3O)C(CO)O2)c(=O)[nH]c1=O (configuration not stated) | 
